From patent US7741436B2, “Biologically active peptides and their use for repairing injured nerves” (priority 2001, dated 2010)

Columns and labels:
Assay type in all cases: cell-based
[1] = test system: rat cerebellar granule neurons; test: Electrophysiology: voltage-clamped whole-cell patch recordings of currents induced by laminin-1-derived peptides and fusion proteins; details: whole-cell patch clamp, neurons on laminin-1 substratum
Source text: Sixteen-day pregnant Sprague-Dawley female rats were obtained from Taconic Farms, and maintained at the animal facility of National Institute of Alcohol Abuse and Alcoholism (NTH), fed with NTH-31 diet, containing 20,000 IU/kg vitamin A after autoclaving. The rats were allowed to give birth, and cerebellar tissues of 3-day-old female pups were aseptically isolated as described previously (Matsuzawa et al., 1996a). A suspension of single cells was obtained by trypsinizing the cerebella as described elsewhere (Liesi and Wright, 1996), after which 10^5 cells were plated on 22 mm glass coverslip pre-coated with laminin-1. The cells were incubated in an atmosphere of 95% air/5% CO2 at +37° C. in RPMI 1640 culture medium supplemented with penicillin and streptomycin and 200 μM L-glutamine. After 24 hrs, the cells were used for electrophysiology.
Recordings were done at room temperature using a List EPC-7 patch-clamp amplifier in voltage-clamped whole-cell patch configuration as described previously (Liesi and Wright, 1996). Pipettes were pulled from borosilicate glass and lightly fire polished. Experiments were performed at room temperature. Whole-cell currents were recorded on a Gould 2400S strip chart recorder. Cell membrane potential was clamped at −40 mV unless otherwise noted. All bath solutions were applied through pinch-valves that controlled the flow from multiple reservoirs to a single 200 μm ID barrel of fused silica. Standard bath solution was RPMI 1640, buffered with 10 mM HEPES (pH 7.4). The standard pipette solution contained (in mM): CsMeSO4 100, CsCl 15, BAPTA 5, HEPES 10 (pH KOH-adjusted to 7.2). Tests for reversal potentials were conducted in low K^+ bath solution containing (in mM): NaCl 150, KCl 5, CaCl2 1, HEPES 10 (pH adjusted to 7.2 with NaOH) and a high K^+ bath solution, containing (in mM): NaCl 115, KCl 40, CaCl2 1, HEPES 10 (pH adjusted to 7.2 with NaOH). All bath solutions contained 300 nM TTX. […] Nernst reversal potentials were calculated according to Hille (1992). […]

[2] = test system: human embryonic neocortical neurons; test: Survival of human embryonic neocortical neurons on injured glial cells of the human spinal cord; details: 1 μg/ml soluble peptide, 72 hrs, vs lesion control
Source text: The CNS tissues were first placed in cold saline. The spinal cord tissues were identified under a stereomicroscope, and carefully freed of meninges. To obtain monolayer cultures of human spinal cord glial cells, the cells were dissociated by mechanical trituration using a Pasteur-pipette, and placed in Petri dishes (Corning, N.Y., USA) containing 10% fetal calf serum (Hyclone, Logan, UH) in DMEM-F12 (Gibco, U.K.) supplemented with penicillin and streptomycin as described (Liesi et al. 2001).
Human embryonic spinal cord glial cells were cultured till confluency in 10% fetal bovine serum as described (Liesi et al., 2001). The confluent cultures were trypsinized and cells replated at 100 000 cells/22 mm glass coverslip, and grown till confluency. The confluent cultures were changed into normal adult human serum, and injured by using a 18 G gauge sterile needle. The KDI peptide was added at 1 μg/ml (3 μM) and at 10 μg/ml (30 μM) concentration and the P1543 peptide (p20) was added at a concentration of 1 μM, and 50-100 000 freshly isolated human embryonic neocortical neurons were added on the glial cells. The control cultures had neurons added either without the peptide or the lesion. The cells were cultured for 72 hrs in 5% CO2/95% air at +37° C., and fixed for quantitation of neurons and measurement of their neuritic lengths. The neurons on glial monolayers were visualized by immunostaining using mouse monoclonal antibodies against a neuron-specific tubulin isoform (TUJ1). The results were evaluated by counting neurons in six random fields on 3 different coverslip per experiment. In this way, more than 300 neurons were counted per experiment. Statistical analysis of the results was performed using one-way analysis of Varians (ANOVA) and Student-Newman-Keuls multiple comparisons test on the Instat (v2.03) program (GraphPad, San Diego, Calif.).

[3] = test system: human CNS neurons; test: Attachment and neurite outgrowth of human embryonic CNS neurons on synthetic peptides coupled to glass; details: 1 μg/ml, peptide coupled to glass, 24 hrs
Method: The cells were dissociated by trituration in a sterile culture medium (RPMI 1640) containing penicillin (100 U/ml), streptomycin (100 μg/ml) and 200 μM L-glutamine. The dissociated cells were plated on glass coverslips pre-coated (Liesi et al., 1989) with mouse laminin-1 (Boehringer-Mannheim, Germany) or with the peptides KDI-gc and RDIAEIIKDI-gc (SEQ ID NO: 1), as described elsewhere (Matsuzawa et al., 1996b). The peptides were from the Multiple Peptide Systems (La Jolla, Calif.). The cultures were maintained for 24 hrs, fixed in 2% paraformaldehyde, and processed for immunocytochemistry.
Immunocytochemistry for neuron specific tubulin isoform TUJ1 was performed as described elsewhere (Liesi et al., 2001). In short, the cells were permeabilized in methanol for 5 min at −20° C., washed in PBS and incubated with monoclonal TUJ1-antibodies for 1 hr at room temperature. The antibody was of high specificity and was used at 1:500 dilution. After immunocytochemistry, the coverslips were mounted in PBS:glycerol (1:1) and viewed with Olympus Provis fluorescence microscope with appropriate filter combinations.

Substance	induction of currents in cerebellar granule neurons [1]	attachment and neurite outgrowth of neocortical neurons on lesioned spinal cord glial cells [2]	attachment and neurite outgrowth of human CNS neurons [3]
EIIKDI [6-amino acid peptide truncated from P1543]	induced currents		
RDIAEIIKDI [P1543, C-terminal neurite outgrowth decapeptide of the γ1-chain of laminin-1]	induced electrical currents	significant (p<0.001) improvement	supported attachment and neurite outgrowth
